Experimental data published in US20250154146A1, “PROTEIN DEGRADERS DEVELOPED ON BASIS OF BCL-2 FAMILY PROTEIN LIGAND COMPOUNDS AND USE THEREOF” (ShanghaiTech University, priority 2022, published 2025).
Entries after “also recorded” stand apart in the source; their conditions may differ.

What was measured:
Format in all cases: cell-based
RS4;11 cells = test: Thiazolyl blue cell proliferation assay in RS4;11 cells; details: Homo sapiens, RS4;11 acute lymphoblastic leukemia cells, 48 hours, read-out: IC50 (nM) for inhibiting the proliferation of RS4;11 cells
Source text: (§1) The cell lines RS4;11 (human acute lymphocytic leukemia cells), Molt-4 cells (human acute lymphocytic leukemia cells), MV4;11 (human myeloid monocytic leukemia cells), and Light II cells were commercially available or purchased from ATCC (American Type Culture Collection) and routinely cultured according to instructions.
1) Study on the proliferation inhibition effects induced by the compounds of the present disclosure designed based on ABT199/263 against BCL-XL-dependent RS4;11 cells:
(§2) The specific steps were as follows: RS4;11 cells were seeded at a density of 3×10^4 cells/well in 90 μL of serum-containing RPMI-1640 culture medium. DT2216 and the compounds of the present disclosure were added to the cell suspension at corresponding concentration gradients. DT2216 and DMSO were used as positive and vehicle control, respectively. The positive control and negative control were treated with the same treatment method as the compounds of the present disclosure. After treating the cells with the compounds of the present disclosure for 48 hours, thiazole blue solution (5 mg/mL) was added at 10 μL/well to the cell suspension, followed by incubation for 3 hours at 37° C. in an incubator with 5% CO2. Then, triple solution (0.1 g/mL SDS, 5% isopropyl alcohol, 10 mM hydrochloric acid) was added, followed by incubation for 4-6 hours at 37° C. in an incubator with 5% CO2. After confirming that all the crystal violets were dissolved under inverted biological microscopy, the absorbance was measured at 490 nm using an Epoch microplate reader (Biotek Corporation). The growth inhibition of the compounds of the present disclosure on the cells was plotted by GraphPad Prism 8 software, and the IC50 values of the compounds of the present disclosure were calculated therefrom. The experiment had 3 replicates per group and was repeated at least three times.
We conducted dose-dependent experiments on the designed and synthesized compounds of the present disclosure in RS4;11 cells, which are highly sensitive to BCL-XL inhibitors. The cells were treated with 7 different concentrations (starting at the highest concentration of 1000 nM or 100 nM; 10-fold serial dilutions) of the compounds for 48 hours, and then tested using the thiazolyl blue cell proliferation assay.

MV4;11 cells = test: Thiazolyl blue cell proliferation assay in MV4;11 cells; details: Homo sapiens, MV4;11 myeloid monocytic leukemia cells, 48 hours, read-out: IC50 (nM) for inhibiting the proliferation of MV4;11 cells
Source text: as §1
2) Study on the proliferation inhibition effects induced by the compounds of the present disclosure designed based on ABT199/263 against BCL-XL-dependent MV4;11 cells:
as §2, with “MV4;11” for “RS4;11”, “2×10^4” for “3×10^4”, “IMDM” for “RPMI-1640”, “µL/well” for “μL/well”

Molt-4 cells = test: Thiazolyl blue cell proliferation assay in Molt-4 cells; details: Homo sapiens, Molt-4 acute lymphocytic leukemia cells, 72 hours, read-out: IC50 (nM) for inhibiting the proliferation of Molt-4 cells
Source text: as §1
3) Study on the proliferation inhibition effects induced by the compounds of the present disclosure designed based on ABT199/263 against BCL-XL-dependent Molt-4 cells:
as §2, with “follows: Molt-4” for “follows: RS4;11”, “of 2×10^4” for “of 3×10^4”, “in 180” for “in 90”, “serum-containing RPMI 1640” for “serum-containing RPMI-1640”, “for 72” for “for 48”, “at 20” for “at 10”

[1] = test system: Hedgehog (Hh) signaling pathway; test: Dual-luciferase reporter assay of Hedgehog activity in Light II cells; details: SAG stimulation, 36 h, dual-luciferase assay reporter kit, read-out: IC50 (nM) in Light II cells (inhibiting Hedgehog activity)
Protocol: Determination of the IC50 Values of Compounds Inhibiting Hedgehog Activity—Dual-Luciferase Reporter Assay:
Light II cells were NIH3T3 cell lines that stably express the Gli-luciferase and TK-renilla reporters. They were cultured with DMEM medium containing 10% (v/v) fetal bovine serum (FBS), 0.4 mg/ml G418, 0.15 mg/ml bleomycin (Zeocin), and penicillin/streptomycin at 37° C. in an incubator with 5% CO2. Light II cells in the logarithmic growth phase were seeded at a density of 2.5×10^4 cells/well in a 96-well plate. After 24h incubation, the cells were subjected to treatment with SAG with or without different concentrations of the compounds of the present disclosure for 36 h. After that, the Hedgehog activity was measured using the dual fluorescence reporter kit according to its instructions. The experiment had 3 replicates per group and was repeated at least three times.

BCL-XL protein = biological target: T1, BCL-XL protein (Homo sapiens, UniProt Q07817); test: Western blot of BCL-XL protein in Molt-4 cells; details: 100 nM, 8 h
T1 construct: endogenous in cells; host or cells: Molt-4 (human acute lymphocytic leukemia cells)
Protocol: The BCL-XL antibody used in the experiment was purchased from Abcam Company, and the Tubulin antibody was purchased from Proteintech Company.
Molt-4 cells in logarithmic growth phase seeded at a density of 3×10^6 cells/well in a 6-well plate were subjected to treatment with the compounds of the present disclosure, and DMSO was used as the vehicle control group. After […] of treatment, the cells were harvested and washed once in PBS. Cells were placed on ice and treated with IP protein lysis buffer containing PMSF protease inhibitors. After centrifugation at 4° C. (10 k rpm, 5 min), the supernatant was collected and mixed with 4×LDS protein loading buffer at a volume ratio of 3:1. The mixture of protein supernatant with loading buffer were further added with 5% β-mercaptoethanol. After incubation in a metal bath at 95° C. for 10 minutes, the protein samples was stored at −80° C. or cooled directly on ice for protein electrophoresis using 10% homemade polyacrylamide gel as separation gel. Electrophoresis tank and other related components were purchased from Bio-rad company. The electrophoresis conditions were voltage 80 V for 45 minutes, then switch to voltage 120V for further electrophoresis for 1 hour. Then protein in gel was transferred onto PVDF membrane at an isocurrent of 300 mA in an icy water bath for one hour. Afterwards, the membrane was blocked with 5% skim milk for 1 hour at room temperature. Subsequently the membrane was incubated with primary antibody at 4° C. overnight or at room temperature for 2 h, then washed with 1×TBST buffer (sodium chloride, 150 mM, Tris, 10 mM, Tween 20, 0.1%; PH 7.4) for three times, and then added with secondary antibody and incubated at room temperature for 45 min, washed with 1×TBST buffer (sodium chloride, 150 mM, Tris, 10 mM, Tween 20, 0.1%; PH 7.4) three times, and subjected to color development. The antibody dilution ratio was determined according to the antibody instructions.
Molt-4 cells were seeded into a 6-well plate at a density of 3×10^6 cells per well. The next day, the cells were treated with the compounds of the present disclosure at a concentration of 100 nM, and the control groups were treated with DMSO and DT2216, respectively. Protein were extracted after 8 hours treatment, and BCL-XL protein expression was assessed by the western blot.

T1 sequence (Q07817 whole entry): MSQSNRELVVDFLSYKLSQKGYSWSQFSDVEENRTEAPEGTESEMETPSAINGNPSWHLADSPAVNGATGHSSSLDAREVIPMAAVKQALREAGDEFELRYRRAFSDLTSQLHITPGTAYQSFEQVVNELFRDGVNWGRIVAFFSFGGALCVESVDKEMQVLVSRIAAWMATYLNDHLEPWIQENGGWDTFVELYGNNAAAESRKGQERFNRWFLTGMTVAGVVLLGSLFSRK

Compound | IC50 (RS4;11 cells) | IC50 (MV4;11 cells) | IC50 (Molt-4 cells) | IC50 [1] | BCL-XL protein expression / degradation (western blot) (BCL-XL protein)
CC1(C)CCC(CN2CCN(c3ccc(C(=O)NS(=O)(=O)c4ccc(NC[C@H]5CC[C@H](N6CCN(Cc7cc(Br)c8c(c7)C(=O)N(C7CCC(=O)NC7=O)C8)CC6)CC5)c([N+](=O)[O-])c4)c(Oc4cnc5[nH]ccc5c4)c3)CC2)=C(c2ccc(Cl)cc2)C1 (relative stereo) [BCL-03146, 2-((1H-pyrrolo[2,3-b]pyridin-5-yl)oxy)-N-((4-((((trans)-4-(4-((7-bromo-2-(2,6-dioxopiperidin-3-yl)-3-oxoisoindolin-5-yl)methyl)piperazin-1-yl)cyclohexyl)methyl)amino)-3-nitrophenyl)sulfonyl)-4-(4-((4′-chloro-5,5-dimethyl-3,4,5,6-tetrahydro-[1,1′-biphenyl]-2-yl)methyl)piperazin-1-yl)benzamide] | < 20 nM | < 20 nM | < 10 nM | < 10 nM | significantly reduce the expression of BCL-XL protein; also recorded: significantly degraded BCL-XL protein
C[C@@H]1CN([C@H]2CC[C@H](CNc3ccc(S(=O)(=O)NC(=O)c4ccc(N5CCN(CC6=C(c7ccc(Cl)cc7)CC(C)(C)CC6)CC5)cc4Oc4cnc5[nH]ccc5c4)cc3[N+](=O)[O-])CC2)CCN1Cc1ccc2c(c1)CN(C1CCC(=O)NC1=O)C2=O (stereo partly drawn) [BCL-03168, 2-((1H-pyrrolo[2,3-b]pyridin-5-yl)oxy)-4-(4-((4′-chloro-5,5-dimethyl-3,4,5,6-tetrahydro-[1,1′-biphenyl]-2-yl)methyl)piperazin-1-yl)-N-((4-((((trans)-4-((3R)-4-((2-(2,6-dioxopiperidin-3-yl)-1-oxoisoindolin-5-yl)methyl)-3-methylpiperazin-1-yl)cyclohexyl)methyl)amino)-3-nitrophenyl)sulfonyl)benzamide] | < 20 nM | < 20 nM | < 10 nM | < 10 nM | 
C[C@H]1CN([C@H]2CC[C@@H](CNc3ccc(S(=O)(=O)NC(=O)c4ccc(N5CCN(CC6=C(c7ccc(Cl)cc7)CC(C)(C)CC6)CC5)cc4Oc4cnc5[nH]ccc5c4)cc3[N+](=O)[O-])CC2)CCN1Cc1cc(Br)c2c(c1)C(=O)N(C1CCC(=O)NC1=O)C2 (stereo partly drawn) [BCL-03169, 2-((1H-pyrrolo[2,3-b]pyridin-5-yl)oxy)-N-((4-((((cis)-4-((3S)-4-((7-bromo-2-(2,6-dioxopiperidin-3-yl)-3-oxoisoindolin-5-yl)methyl)-3-methylpiperazin-1-yl)cyclohexyl)methyl)amino)-3-nitrophenyl)sulfonyl)-4-(4-((4′-chloro-5,5-dimethyl-3,4,5,6-tetrahydro-[1,1′-biphenyl]-2-yl)methyl)piperazin-1-yl)benzamide] | < 20 nM | < 20 nM | < 10 nM | < 10 nM | 

The next lines start with results.

IC50 (RS4;11 cells) | IC50 (MV4;11 cells) | IC50 (Molt-4 cells) | IC50 [1] | Compound | BCL-XL protein expression / degradation (western blot) (BCL-XL protein)
< 20 nM | < 20 nM | < 10 nM | < 10 nM | CC1(C)CCC(c2ccc(Cl)cc2)=C(CN2CCN(c3ccc(C(=O)NS(=O)(=O)c4ccc(N[C@H](CCN5CCN(Cc6ccc7c(c6)CN(C6CCC(=O)NC6=O)C7=O)CC5)CSc5ccccc5)c(S(=O)(=O)C(F)(F)F)c4)cc3)CC2)C1 (stereo partly drawn) [BCL-03177, 4-(4-((4′-chloro-4,4-dimethyl-3,4,5,6-tetrahydro-[1,1′-biphenyl]-2-yl)methyl)piperazin-1-yl)-N-((4-(((2R)-4-(4-((2-(2,6-dioxopiperidin-3-yl)-1-oxoisoindolin-5-yl)methyl)piperazin-1-yl)-1-(phenylthio)butan-2-yl)amino)-3-((trifluoromethyl)sulfonyl)phenyl)sulfonyl)benzamide] | 
< 20 nM | < 20 nM | < 10 nM | < 10 nM | CC1(C)CCC(c2ccc(Cl)cc2)=C(CN2CCN(c3ccc(C(=O)NS(=O)(=O)c4ccc(N[C@H](CCN5CCN(Cc6ccc7c(c6)C(=O)N(C6CCC(=O)NC6=O)C7=O)CC5)CSc5ccccc5)c(S(=O)(=O)C(F)(F)F)c4)cc3)CC2)C1 (stereo partly drawn) [BCL-03189, 4-(4-((4′-chloro-4,4-dimethyl-3,4,5,6-tetrahydro-[1,1′-biphenyl]-2-yl)methyl)piperazin-1-yl)-N-((4-(((2R)-4-(4-((2-(2,6-dioxopiperidin-3-yl)-1,3-dioxoisoindolin-5-yl)methyl)piperazin-1-yl)-1-(phenylthio)butan-2-yl)amino)-3-((trifluoromethyl)sulfonyl)phenyl)sulfonyl)benzamide] | 
